# Patent publication US6737383B1, “Herbicidal oxadiazolidines” (priority 1999, dated 2004)
# Legend:
# bedstraw = test: Test B pre/postemergence bedstraw; format: in vivo, Galium aparine
# Summary of the method: (§1)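 Test chemicals in a non-phytotoxic solvent mixture with surfactant were sprayed preemergence onto planted seeds and postemergence onto plants 2 to 18 cm tall (1- to 4-leaf stage). After twelve to sixteen days in a greenhouse, injury was visually rated against untreated controls from 0 (no effect) to 10 (complete control).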
# blackgrass = test: Test B pre/postemergence blackgrass; format: in vivo, Alopecurus myosuroides
# Summary of the method: as §1
# surinam grass = test: Test B pre/postemergence surinam grass; format: in vivo, Brachiaria decumbens
# Summary of the method: as §1
# cocklebur = test: Test B pre/postemergence cocklebur; format: in vivo, Xanthium strumarium
# Summary of the method: as §1
# corn = test: Test B pre/postemergence corn; format: in vivo, Zea mays
# Summary of the method: as §1
# crabgrass = test: Test B pre/postemergence crabgrass; format: in vivo, Digitaria sanguinalis
# Summary of the method: as §1
# giant foxtail = test: Test B pre/postemergence giant foxtail; format: in vivo, Setaria faberii
# Summary of the method: as §1
# morningglory = test: Test B pre/postemergence morningglory; format: in vivo, Ipomoea hederacea
# Summary of the method: as §1
# pigweed = test: Test B pre/postemergence pigweed; format: in vivo, Amaranthus retroflexus
# Summary of the method: as §1
# rape = test: Test B pre/postemergence rape; format: in vivo, Brassica napus
# Summary of the method: as §1
# sugar beet = test: Test B pre/postemergence sugar beet; format: in vivo, Beta vulgaris
# Summary of the method: as §1
# wheat = test: Test B pre/postemergence wheat; format: in vivo, Triticum aestivum
# Summary of the method: as §1
# wild oat = test: Test B pre/postemergence wild oat; format: in vivo, Avena fatua
# Summary of the method: as §1
# purple nutsedge = test: Test B pre/postemergence purple nutsedge; format: in vivo, Cyperus rotundus
# Summary of the method: as §1
# rice = test: Test B flood test rice; format: in vivo, Oryza sativa
# Summary of the method: (§2)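 Read-out is a visual response score from 0 (no effect) to 10 (complete control), assigned by comparison with untreated controls. Treatment was applied at the 2-leaf stage, and plants stayed in the greenhouse for twelve to sixteen days before scoring.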
# bamyardgrass = test: Test B flood test barnyardgrass; format: in vivo, Echinochloa crus-galli
# Summary of the method: as §2
# [1] = Preemergence, Rate 62 g/ha, scale of 0 to 10 where 0 is no effect and 10 is complete control
# [2] = Preemergence, Rate 125 g/ha, 0 is no effect, 10 is complete control
# [3] = Preemergence, Rate 250 g/ha, scale 0 to 10, 0 is no effect, 10 is complete control
# [4] = Preemergence, Rate 500 g/ha, scale 0 to 10 (0 no effect, 10 complete control)
# [5] = Rate 62 g/ha, Postemergence, scale of 0 to 10 where 0 is no effect and 10 is complete control
# [6] = Rate 125 g/ha, Postemergence, scale 0 to 10
# [7] = Rate 500 g/ha, Postemergence, scale 0 to 10
# [8] = Rate 62 g/ha, headed Pre-emergence (flood test species), scale 0 to 10 (0 no effect, 10 complete control)
# [9] = Rate 125 g/ha, Pre-emergence, flood test species, scale 0 to 10 where 0 is no effect and 10 is complete control
# [10] = Rate 250 g/ha, Pre-emergence, flood-test species, scale 0 to 10, 0 is no effect, 10 is complete control
# [11] = Rate 500 g/ha, headed Pre-emergence (flood test species), scale 0 to 10 (0 no effect, 10 complete control)
compound,measurement,setting,value
CCN(Cc1ccncc1)C(=O)n1oc(=O)n(C(C)C)c1=O [Compound 189],Bedstraw plant response rating,bedstraw; [1],0
same,Bedstraw plant response rating (0 to 10 scale),bedstraw; [2],0
same,Bedstraw plant response rating,bedstraw; [3],0
same,Bedstraw plant response rating,bedstraw; [4],0
same,Bedstraw plant response rating,bedstraw; [5],0
same,Bedstraw plant response rating,bedstraw; [6],0
same,"Plant response rating (0 to 10; 0 is no effect, 10 is complete control), Bedstraw","bedstraw; Rate 250 g/ha, Postemergence",0
same,Bedstraw plant response rating,bedstraw; [7],0
same,Blackgrass plant response rating,blackgrass; [1],1
same,Blackgrass plant response rating (0 to 10 scale),blackgrass; [2],4
same,Blackgrass plant response rating,blackgrass; [3],4
same,Blackgrass plant response rating,blackgrass; [4],7
same,Blackgrass plant response rating,blackgrass; [5],0
same,Blackgrass plant response rating,blackgrass; [6],0
same,"Plant response rating (0 to 10; 0 is no effect, 10 is complete control), Blackgrass","blackgrass; Rate 250 g/ha, Postemergence",0
same,Blackgrass plant response rating,blackgrass; [7],0
same,B. signalgrass plant response rating,surinam grass; [1],3
same,B. signalgrass plant response rating,surinam grass; [3],3
same,B. signalgrass plant response rating,surinam grass; [4],6
same,B. signalgrass plant response rating,surinam grass; [5],0
same,B. signalgrass plant response rating,"surinam grass; Rate 125 g/ha, Postemergence, scale 0 (no effect) to 10 (complete control)",0
same,"Plant response rating, B. signalgrass","surinam grass; Rate 250 g/ha, Postemergence, scale 0 to 10, 0 is no effect, 10 is complete control",0
same,B. signalgrass plant response rating,"surinam grass; Rate 500 g/ha, Postemergence, scale 0 to 10, 0 no effect, 10 complete control",0
same,Cocklebur plant response rating (0 to 10 scale),cocklebur; [2],0
same,Cocklebur plant response rating,cocklebur; [3],0
same,Cocklebur plant response rating,cocklebur; [4],0
same,Cocklebur plant response rating,cocklebur; [5],0
same,Cocklebur plant response rating,cocklebur; [6],0
same,"Plant response rating (0 to 10; 0 is no effect, 10 is complete control), Cocklebur","cocklebur; Rate 250 g/ha, Postemergence",0
same,Cocklebur plant response rating,cocklebur; [7],0
same,Corn plant response rating,corn; [1],0
same,Corn plant response rating (0 to 10 scale),corn; [2],0
same,Corn plant response rating,corn; [3],0
same,Corn plant response rating,corn; [4],0
same,Corn plant response rating,corn; [5],0
same,Corn plant response rating,corn; [6],0
same,"Plant response rating (0 to 10; 0 is no effect, 10 is complete control), Corn","corn; Rate 250 g/ha, Postemergence",0
same,Corn plant response rating,corn; [7],0
same,Crabgrass plant response rating,crabgrass; [1],0
same,Crabgrass plant response rating (0 to 10 scale),crabgrass; [2],0
same,Crabgrass plant response rating,crabgrass; [3],0
same,Crabgrass plant response rating,crabgrass; [4],3
same,Crabgrass plant response rating,crabgrass; [5],0
same,Crabgrass plant response rating,crabgrass; [6],0
same,"Plant response rating (0 to 10; 0 is no effect, 10 is complete control), Crabgrass","crabgrass; Rate 250 g/ha, Postemergence",0
same,Crabgrass plant response rating,crabgrass; [7],0
same,Giant foxtail plant response rating,giant foxtail; [1],0
same,Giant foxtail plant response rating (0 to 10 scale),giant foxtail; [2],0
same,Giant foxtail plant response rating,giant foxtail; [3],3
same,Giant foxtail plant response rating,giant foxtail; [4],6
same,Giant foxtail plant response rating,giant foxtail; [5],0
same,Giant foxtail plant response rating,giant foxtail; [6],0
same,"Plant response rating (0 to 10; 0 is no effect, 10 is complete control), Giant foxtail","giant foxtail; Rate 250 g/ha, Postemergence",0
same,Giant foxtail plant response rating,giant foxtail; [7],0
same,Morningglory plant response rating,morningglory; [1],0
same,Morningglory plant response rating (0 to 10 scale),morningglory; [2],0
same,Morningglory plant response rating,morningglory; [3],0
same,Morningglory plant response rating,morningglory; [4],0
same,Morningglory plant response rating,morningglory; [5],0
same,Morningglory plant response rating,morningglory; [6],0
same,"Plant response rating (0 to 10; 0 is no effect, 10 is complete control), Morningglory","morningglory; Rate 250 g/ha, Postemergence",0
same,Morningglory plant response rating,morningglory; [7],0
same,Redroot pigweed plant response rating,pigweed; [1],0
same,Redroot pigweed plant response rating (0 to 10 scale),pigweed; [2],0
same,Redroot pigweed plant response rating,pigweed; [3],0
same,Redroot pigweed plant response rating,pigweed; [4],0
same,Redroot pigweed plant response rating,pigweed; [5],0
same,Redroot pigweed plant response rating,pigweed; [6],0
same,"Plant response rating (0 to 10; 0 is no effect, 10 is complete control), Redroot pigweed","pigweed; Rate 250 g/ha, Postemergence",0
same,Redroot pigweed plant response rating,pigweed; [7],0
same,Rape plant response rating,rape; [1],0
same,Rape plant response rating (0 to 10 scale),rape; [2],0
same,Rape plant response rating,rape; [3],0
same,Rape plant response rating,rape; [4],0
same,Rape plant response rating,rape; [5],0
same,Rape plant response rating,rape; [6],0
same,"Plant response rating (0 to 10; 0 is no effect, 10 is complete control), Rape","rape; Rate 250 g/ha, Postemergence",0
same,Rape plant response rating,rape; [7],0
same,Sugarbeets plant response rating,sugar beet; [1],0
same,Sugarbeets plant response rating (0 to 10 scale),sugar beet; [2],0
same,Sugarbeets plant response rating,sugar beet; [3],0
same,Sugarbeets plant response rating,sugar beet; [4],0
same,Sugarbeets plant response rating,sugar beet; [5],0
same,Sugarbeets plant response rating,sugar beet; [6],0
same,"Plant response rating (0 to 10; 0 is no effect, 10 is complete control), Sugarbeets","sugar beet; Rate 250 g/ha, Postemergence",0
same,Sugarbeets plant response rating,sugar beet; [7],0
same,Wheat plant response rating,wheat; [1],0
same,Wheat plant response rating,wheat; [3],0
same,Wheat plant response rating,wheat; [4],2
same,Wheat plant response rating,wheat; [5],0
same,Wheat plant response rating,wheat; [6],0
same,"Plant response rating (0 to 10; 0 is no effect, 10 is complete control), Wheat","wheat; Rate 250 g/ha, Postemergence",0
same,Wild oats plant response rating,wild oat; [1],0
same,Wild oats plant response rating,wild oat; [3],3
same,Wild oats plant response rating,wild oat; [4],3
same,Wild oats plant response rating,wild oat; [5],0
same,Wild oats plant response rating,wild oat; [6],0
same,"Plant response rating (0 to 10; 0 is no effect, 10 is complete control), Wild oats","wild oat; Rate 250 g/ha, Postemergence",0
same,Nutsedge plant response rating,purple nutsedge; [1],0
same,Nutsedge plant response rating (0 to 10 scale),purple nutsedge; [2],0
same,Nutsedge plant response rating,purple nutsedge; [3],0
same,Nutsedge plant response rating,purple nutsedge; [4],0
same,Nutsedge plant response rating,purple nutsedge; [5],0
same,Nutsedge plant response rating,purple nutsedge; [6],0
same,"Plant response rating (0 to 10; 0 is no effect, 10 is complete control), Nutsedge","purple nutsedge; Rate 250 g/ha, Postemergence",0
same,Nutsedge plant response rating,purple nutsedge; [7],0
same,Rice plant response rating,rice; [8],0
same,Rice plant response rating,rice; [9],0
same,Rice plant response rating,rice; [10],0
same,"Plant response rating, Rice",rice; [11],0
same,Barnyardgrass plant response rating,bamyardgrass; [8],0
same,Barnyardgrass plant response rating,bamyardgrass; [9],0
same,Barnyardgrass plant response rating,bamyardgrass; [10],0
same,"Plant response rating, Barnyardgrass",bamyardgrass; [11],0
